Legend:
Format in all cases: cell-based
[1] = tested on: human adipose tissue-derived stem cells; test: Adhesion and proliferation rate of stem cells cultured in 30 kGy gamma-irradiated FBS over passages (Example 6); details: 30 kGy FBS
Protocol: Fetal bovine serum (FBS) was irradiated with 30 kGy of gamma radiation, thereby preparing gamma-irradiated FBS. The gamma-irradiated FBS was added to AMSC+ culture medium (R-Bio Co., Ltd.) at a concentration of 5%, and 1% vitamin C was added to the culture medium, thereby preparing a medium (a vitamin C post-treatment group). Then, the human adipose tissue-derived stem cells at passage 1, isolated in Example 1, were thawed and inoculated into T25 flasks at a concentration of 0.7×10^3 cells/T25 flask, and the inoculated cells were cultured with AMSC+ culture medium (R-Bio Co., Ltd.) containing the prepared gamma-irradiated FBS at a concentration of 5% in a CO2 incubator at 37° C. for 2 days. After 2 days of culture, the medium was removed and replaced with AMSC+ culture medium containing 5% normal FBS (a positive control group), or medium obtained by adding vitamin C to AMSC+ culture medium containing 5% gamma-irradiated FBS (a vitamin C post-treatment test group). Vitamin C was added to the culture medium at a concentration of 1%. […] The stem cell adhesion shown in FIGS. 11A-11C was examined with a Leica microscope, and the cell number, cell size and viability shown in Tables 6 to 9 were examined with Luna™ Automated cell counter L10001 (Logos Biosystems).

[2] = tested on: human adipose tissue-derived stem cells; test: Expression of stem cell CD markers by FACS (Example 7); parameters: CD73 expression (FACS) / CD31 expression (FACS) / CD34 expression (FACS) / CD45 expression (FACS): unit not given here; details: for CD31 expression (FACS) / CD34 expression (FACS) / CD45 expression (FACS) / CD73 expression (FACS) / CD90 expression (FACS): 30 kGy FBS; for CD90 expression (FACS): in % (unit assumed)
Protocol: (§1) For the positive control group and vitamin C post-treatment test group of Example 6, the purity and characteristics of the stem cells at passage 4 were examined. The purity of the stem cells was examined by analyzing the expression of CD markers using FACS (FIG. 12 and Table 10), and the characteristics of the stem cells were examined by analyzing differentiation into adipocytes, osteocytes and chondrocytes (FIGS. 13 to 15). Differentiation into adipocytes was analyzed by oil red 0 staining according to the Sigma-Aldrich protocol, and differentiation into osteocytes was analyzed by alizarin red S staining according to the Lifeline Cell Tech's protocol, and differentiation into chondrocytes was analyzed by TSP2 ELISA.

[3] = tested on: human adipose tissue-derived stem cells; test: Differentiation into osteocytes, alizarin red S staining (Example 7); details: 30 KGy gamma radiation, post-treated with 1% vitamin C, passage 4
Protocol: as §1

[4] = tested on: human adipose tissue-derived stem cells; test: Viability of stem cells cultured in 30 kGy gamma-irradiated FBS (Example 5): cell number, size, viability, doubling time; details: 30 kGy FBS, 4 days; for Cell No. / Cell size / DT / Viability: average (n = 3)
Protocol: Fetal bovine serum (FBS) was irradiated with 30 kGy of gamma radiation, thereby preparing gamma-irradiated FBS. Vitamin C (ascorbic acid; L-Ascorbic Acid 2-phosphate) was added to the FBS which was then irradiated with 30 kGy of gamma irradiation, thereby preparing gamma-irradiated FBS pretreated with vitamin C. The vitamin C was added to the FBS at a concentration of 1%. Then, the human adipose tissue-derived stem cells at passage 3, isolated in Example 1, were thawed and inoculated into T75 flasks at a concentration of 0.5×10^6 cells/T75 flask, and the inoculated cells were cultured with AMSC+ culture medium (R-Bio Co., Ltd.) containing the prepared gamma-irradiated FBS or gamma-irradiated FBS pretreated with vitamin C at a concentration of 5% in a CO2 incubator at 37° C. for 2 days. After 2 days of culture, the medium was removed and replaced with AMSC+ culture medium containing 5% gamma-irradiated FBS (a negative control group), medium obtained by adding vitamin C to AMSC+ culture medium containing 5% gamma-irradiated FBS (a vitamin C post-treatment test group), or medium obtained by adding vitamin C to AMSC+ culture medium containing 5% gamma-irradiated FBS pretreated with vitamin C (a vitamin C pre- and post-treatment test group) (Table 4). Vitamin C was added to the culture medium or FBS at a concentration of 1%. After 4 days of culture (FIG. 6), the cell proliferation rate, cell number, viability and doubling time of the stem cells were examined. A positive control group was also prepared as described in Example 2 above. [table]

[5] = Stem cells #1 P1, 1% vitamin C post-treatment
[6] = Stem cells #1 P2, 1% vitamin C post-treatment
[7] = Stem cells #1 P3, 1% vitamin C post-treatment
[8] = Stem cells #1 P4, 1% vitamin C post-treatment
[9] = Stem cells #2 P1, 1% vitamin C post-treatment
[10] = Stem cells #2 P2, 1% vitamin C post-treatment
[11] = Stem cells #2 P3, 1% vitamin C post-treatment
[12] = Stem cells #2 P4, 1% vitamin C post-treatment
[13] = Stem cells #3 P1, 1% vitamin C post-treatment
[14] = Stem cells #3 P2, 1% vitamin C post-treatment
[15] = Stem cells #3 P3, 1% vitamin C post-treatment
[16] = Stem cells #3 P4, 1% vitamin C post-treatment
[17] = 1% Vit. C pre-treatment + 1% Vit. C post-treatment

In the case of `O=C1O[C@H]([C@@H](O)CO)C(O)=C1OP(=O)(O)O` [AA2P, L-Ascorbic Acid 2-phosphate], the “adhesion, cell number, cell size and viability versus positive control group” value ([1]; 1% vitamin C post-treatment, stem cells at passages 2 to 4) was “did not differ from those of the positive control group”, the Cell number [1, 5] was 2.4 × 10^7 cells and the Cell size [1, 5] was 19.1 μm. The Viability [1, 5] was 84.4%, the Cell number [1, 6] was 1.6 × 10^7 cells and the Cell size [1, 6] was 19.5 μm. The Viability [1, 6] was 83%, the Cell number [1, 7] was 2.0 × 10^7 cells and the Cell size [1, 7] was 19.2 μm. For the same molecule, the Viability [1, 7] was 88.7%, the Cell number [1, 8] was 3.3 × 10^8 cells and the Cell size [1, 8] was 20 μm. The Viability [1, 8] was 87.5%, the Cell number [1, 9] was 1.8 × 10^7 cells and the Cell size [1, 9] was 20 μm. For the same molecule, the Viability [1, 9] was 89.6%, the Cell number [1, 10] was 1.8 × 10^7 cells and the Cell size [1, 10] was 19.3 μm. The Viability [1, 10] was 95.5%, the Cell number [1, 11] was 1.2 × 10^7 cells and the Cell size [1, 11] was 19.7 μm. The Viability [1, 11] was 88.9%, the Cell number [1, 12] was 1.5 × 10^8 cells and the Cell size [1, 12] was 18.8 μm. For the same molecule, the Viability [1, 12] was 95.6%, the Cell number [1, 13] was 2.3 × 10^7 cells and the Cell size [1, 13] was 19.6 μm. For the same molecule, the Viability [1, 13] was 87.1%, the Cell number [1, 14] was 1.4 × 10^7 cells and the Cell size [1, 14] was 18 μm. For the same molecule, the Viability [1, 14] was 82%, the Cell number [1, 15] was 1.4 × 10^7 cells and the Cell size [1, 15] was 19.3 μm. The Viability [1, 15] was 88.2%, the Cell number [1, 16] was 2.1 × 10^8 cells and the Cell size [1, 16] was 17.8 μm. For the same molecule, the Viability [1, 16] was 88.0%, the “expression of CD markers versus positive control group” value ([2]; 30 KGy gamma radiation, post-treated with 1% vitamin C, passage 4) was “did not differ from that in the positive control group” and the “CD31 expression (FACS)” value [2, 8] was 0.52. The “CD34 expression (FACS)” value [2, 8] was 0.31, the “CD45 expression (FACS)” value [2, 8] was 0.49 and the “CD73 expression (FACS)” value [2, 8] was 94.30. For the same molecule, the “CD90 expression (FACS)” value [2, 8] was 99.98, the “CD31 expression (FACS)” value [2, 12] was 0.16 and the “CD34 expression (FACS)” value [2, 12] was 0.14. The “CD45 expression (FACS)” value [2, 12] was 0.11, the “CD73 expression (FACS)” value [2, 12] was 93.42 and the “CD90 expression (FACS)” value [2, 12] was 99.99. The “CD31 expression (FACS)” value [2, 16] was 0.47, the “CD34 expression (FACS)” value [2, 16] was 0.70 and the “CD45 expression (FACS)” value [2, 16] was 0.78. For the same molecule, the “CD73 expression (FACS)” value [2, 16] was 91.45, the “CD90 expression (FACS)” value [2, 16] was 99.99 and the “differentiation into osteocytes versus positive control group” value [3] was “did not differ from those of the positive control group”. The “Cell No.” value ([4]; 1% Vit. C post-treatment) was 4.3 ×10^6 cells, the Cell size ([4]; 1% Vit. C post-treatment) was 19.3 μm and the DT ([4]; 1% Vit. C post-treatment) was 29.9 h. For the same molecule, the Viability ([4]; 1% Vit. C post-treatment) was 86.9%, the “Cell No.” value [4, 17] was 5.7 ×10^6 cells and the Cell size [4, 17] was 20.3 μm. The DT [4, 17] was 28.1 h, the Viability [4, 17] was 86.5% and the “Cell No.” value ([4]; 1% Vit. C pre-treatment) was 5.8 ×10^6 cells. It also gave a Cell size ([4]; 1% Vit. C pre-treatment) of 18.8 μm, a DT ([4]; 1% Vit. C pre-treatment) of 27.6 h and a Viability ([4]; 1% Vit. C pre-treatment) of 92.3%. The “cell number, viability and doubling time versus positive control group” value ([4]; vitamin C post-treatment test group) was “increased to the levels of the positive control group”.

Source: US11932874B2, “Method for culturing mesenchymal stem cells using gamma-irradiated serum” (R Bio CO., Ltd., priority 2018, dated 2024)
